Data: patent US6342219B1 (Board of Regents, The University of Texas System, priority 1999, dated 2002)

Experiments:
VEGFR1 = VEGFR1 (Homo sapiens, UniProt P17948); details: read-out: Kd of VEGF binding to VEGFR1; Terman et al., 1994; cited from earlier work
[1] = test system: human NCI-H358 NSCLC tumors; format: in vivo, SCID mice
[2] = Blood clearance of radioiodinated 2C3-GUS; format: in vivo; details: mice, intravenous injection, 125I-labelled
Source text: 2C3-GUS was radioiodinated with ^125I to a specific activity of 5×10^6 cpm/μg.

β-glucuronidase (GUS) = biological target: T1, β-glucuronidase (GUS) (Escherichia coli, UniProt P05804); assay: Enzymatic activity of the GUS portion; format: biochemical, E. coli
T1 construct: made in house; host or cells: E. coli M15 cells
Source text: The 6-His GUS was pure based upon SDS-PAGE, where it ran as a single band of 75 kDa band. On gel filtration columns, the 6-His GUS runs as a tetramer of about 300 kDa.
The biological activity of each component of the 2C3-GUS conjugate was confirmed.

VEGFR2 (KDR/Fc) = assay: Coprecipitation assay, VEGFR2/Fc; format: binding; details: 40 ng VEGF, 200 ng receptor/Fc
Experimental: 200 ng of soluble forms of VEGFR1 (Flt-1/Fc) or VEGFR2 (KDR/Fc, R&D Systems, Minneapolis, Minn.) were added for a total volume of 50 μl and incubated for 2 hrs. The receptor/Fc constructs were precipitated using Protein A-sepharose beads and the resulting precipitate was washed 4 times with binding buffer.
Reducing sample buffer was added to the pellet and supernatant of each reaction and both were analyzed by 12% SDS-PAGE and transferred to PVDF membranes. […] The soluble receptor/Fc constructs were also detected by using peroxidase-conjugated goat anti-human Fc (Kirkegaard & Perry Laboratories, Inc.)
The receptor/Fc constructs were precipitated by incubation with Protein A sepharose beads. The precipitate was washed and resuspended in reducing sample buffer and separated by 12% SDS-PAGE and transferred to PVDF.

[3] = test system: cancer patients having progressive disease; details: patients having progressive disease before treatment; cited from earlier work

Sequence of VEGFR1 (P17948 27-1338): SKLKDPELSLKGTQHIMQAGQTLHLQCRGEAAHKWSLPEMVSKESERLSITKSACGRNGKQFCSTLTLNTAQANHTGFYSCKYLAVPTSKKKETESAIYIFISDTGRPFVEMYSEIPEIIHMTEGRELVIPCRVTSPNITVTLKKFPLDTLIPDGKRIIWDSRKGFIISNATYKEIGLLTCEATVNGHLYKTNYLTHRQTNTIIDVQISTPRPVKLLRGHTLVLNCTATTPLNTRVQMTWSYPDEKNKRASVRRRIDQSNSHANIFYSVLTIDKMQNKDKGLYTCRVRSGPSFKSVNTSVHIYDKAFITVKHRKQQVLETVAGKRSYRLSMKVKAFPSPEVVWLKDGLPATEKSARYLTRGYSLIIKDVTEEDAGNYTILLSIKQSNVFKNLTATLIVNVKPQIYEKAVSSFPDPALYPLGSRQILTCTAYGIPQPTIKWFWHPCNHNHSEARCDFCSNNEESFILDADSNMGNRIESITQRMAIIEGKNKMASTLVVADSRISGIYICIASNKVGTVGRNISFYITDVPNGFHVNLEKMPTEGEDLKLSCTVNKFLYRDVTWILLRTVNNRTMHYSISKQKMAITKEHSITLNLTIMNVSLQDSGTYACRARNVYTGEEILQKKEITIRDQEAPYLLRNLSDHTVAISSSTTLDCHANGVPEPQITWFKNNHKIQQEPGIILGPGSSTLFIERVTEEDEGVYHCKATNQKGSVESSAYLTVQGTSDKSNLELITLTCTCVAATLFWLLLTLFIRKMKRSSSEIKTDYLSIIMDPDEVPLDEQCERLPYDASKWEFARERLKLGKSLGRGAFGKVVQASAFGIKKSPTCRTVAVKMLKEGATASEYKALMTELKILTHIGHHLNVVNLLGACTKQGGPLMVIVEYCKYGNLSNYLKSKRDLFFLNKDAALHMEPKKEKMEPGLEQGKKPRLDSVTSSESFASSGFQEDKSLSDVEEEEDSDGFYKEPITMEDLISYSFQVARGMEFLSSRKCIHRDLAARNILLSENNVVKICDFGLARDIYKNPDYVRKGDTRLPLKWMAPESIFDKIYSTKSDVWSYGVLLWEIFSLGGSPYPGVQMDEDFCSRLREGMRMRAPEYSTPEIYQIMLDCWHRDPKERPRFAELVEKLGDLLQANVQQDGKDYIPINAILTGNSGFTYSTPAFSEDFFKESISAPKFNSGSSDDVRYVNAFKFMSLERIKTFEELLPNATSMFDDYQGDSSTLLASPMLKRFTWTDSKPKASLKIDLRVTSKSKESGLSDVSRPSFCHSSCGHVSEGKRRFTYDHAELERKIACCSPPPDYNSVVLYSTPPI
T1 sequence (P05804 whole entry): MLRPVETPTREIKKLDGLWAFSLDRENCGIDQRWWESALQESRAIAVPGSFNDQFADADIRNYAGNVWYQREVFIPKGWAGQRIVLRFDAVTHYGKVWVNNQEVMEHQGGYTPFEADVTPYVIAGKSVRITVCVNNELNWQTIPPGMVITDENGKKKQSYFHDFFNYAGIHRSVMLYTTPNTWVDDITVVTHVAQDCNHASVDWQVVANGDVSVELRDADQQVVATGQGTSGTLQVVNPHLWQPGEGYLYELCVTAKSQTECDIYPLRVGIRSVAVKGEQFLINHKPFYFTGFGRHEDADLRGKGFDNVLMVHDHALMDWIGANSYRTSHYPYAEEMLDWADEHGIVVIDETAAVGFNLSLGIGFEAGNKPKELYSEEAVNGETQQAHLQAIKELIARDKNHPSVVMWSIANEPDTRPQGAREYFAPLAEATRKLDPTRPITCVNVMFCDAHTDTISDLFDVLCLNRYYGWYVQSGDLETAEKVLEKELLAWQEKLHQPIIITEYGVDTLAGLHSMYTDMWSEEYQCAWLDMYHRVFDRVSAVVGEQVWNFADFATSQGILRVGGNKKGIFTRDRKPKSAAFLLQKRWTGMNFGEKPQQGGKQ

For VEGF, the Kd (VEGFR1) is listed as 0.015 to 0.1 nM.

With 2C3-GUS [Clone 2C3-GUS] the “Localization after i.v. injection” value ([1]; SCID mice bearing subcutaneous NCI-H358) was “specifically localized to tumor vasculature and surrounding tumor stroma”, the “Staining of normal tissues” value ([1]; mouse, in vivo) was “unstained” and the “Time of maximal localization after injection” value ([1]; mouse, in vivo, sc) was 24 to 48 h. The “t½ α” value [2] was “about 6 hours”, the “t½ β” value [2] was “about 25 hours” and the “Enzymatic activity of the GUS portion” value (β-glucuronidase (GUS)) was “retained enzymatic activity”.

For 2C3 F(ab′)2: F(ab′)2 of 2C3, the “Blocking of VEGF binding to VEGFR2/Fc in solution” value (VEGFR2 (KDR/Fc)) was “blocked”.

For `NC(=O)c1nnn(Cc2cc(Cl)c(C(=O)c3ccc(Cl)cc3)c(Cl)c2)c1N` [CAI, carboxyamidotriazole], the “Disease stabilization, share of cancer patients” value [3] is listed as 49%.
